How the values were obtained:
Assay type in all cases: biochemical
SRC = SRC (Homo sapiens, UniProt P12931); experiment: Inhibition of a panel of kinases, in vitro HotSpot kinase assay: SRC; details: D-compounds panel data; 1 μM ATP
Procedure: (§1) The degree of inhibition of a panel of kinases is determined using the in vitro HotSpot kinase assay (purified enzymes, ^33P-ATP, an appropriate substrate and 1 μM ATP).

BTK-WT = target: T1, BTK-WT (Homo sapiens, UniProt Q06187); experiment: Btk in vitro inhibitory activity (one of Method A TR-FRET, Method B electrophoretic mobility shift, Method C radiometric filter binding); details: D-compounds panel data; read-out: IC50 BTK-WT
T1 construct: purified from insect cells as a full-length construct containing an N-terminal 6X-His tag; His6 (N); made in house; host or cells: insect cells (baculovirus Sf21 in Method B)

ITK = target: T2, ITK (Homo sapiens, UniProt Q08881); experiment: Inhibition of a panel of kinases, in vitro HotSpot kinase assay: ITK; details: D-compounds panel data; 1 μM ATP
T2 sequence (Q08881 1-620): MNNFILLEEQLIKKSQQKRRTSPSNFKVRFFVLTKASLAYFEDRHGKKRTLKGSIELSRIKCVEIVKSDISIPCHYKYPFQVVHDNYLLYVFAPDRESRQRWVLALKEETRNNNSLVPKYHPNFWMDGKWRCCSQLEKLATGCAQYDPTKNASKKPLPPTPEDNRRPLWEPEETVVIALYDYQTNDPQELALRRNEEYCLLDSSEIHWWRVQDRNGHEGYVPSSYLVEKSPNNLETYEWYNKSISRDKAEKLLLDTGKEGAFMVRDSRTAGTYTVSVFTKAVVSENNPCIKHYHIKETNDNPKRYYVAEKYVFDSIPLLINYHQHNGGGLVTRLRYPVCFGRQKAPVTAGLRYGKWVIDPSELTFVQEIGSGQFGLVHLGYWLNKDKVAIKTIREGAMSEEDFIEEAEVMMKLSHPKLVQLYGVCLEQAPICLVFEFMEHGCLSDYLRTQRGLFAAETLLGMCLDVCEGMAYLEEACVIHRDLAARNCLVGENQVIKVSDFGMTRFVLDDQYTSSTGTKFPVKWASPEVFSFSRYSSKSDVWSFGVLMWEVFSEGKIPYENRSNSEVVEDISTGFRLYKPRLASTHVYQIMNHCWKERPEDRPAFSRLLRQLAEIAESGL
Procedure: as §1

Chain of SRC (P12931 whole entry): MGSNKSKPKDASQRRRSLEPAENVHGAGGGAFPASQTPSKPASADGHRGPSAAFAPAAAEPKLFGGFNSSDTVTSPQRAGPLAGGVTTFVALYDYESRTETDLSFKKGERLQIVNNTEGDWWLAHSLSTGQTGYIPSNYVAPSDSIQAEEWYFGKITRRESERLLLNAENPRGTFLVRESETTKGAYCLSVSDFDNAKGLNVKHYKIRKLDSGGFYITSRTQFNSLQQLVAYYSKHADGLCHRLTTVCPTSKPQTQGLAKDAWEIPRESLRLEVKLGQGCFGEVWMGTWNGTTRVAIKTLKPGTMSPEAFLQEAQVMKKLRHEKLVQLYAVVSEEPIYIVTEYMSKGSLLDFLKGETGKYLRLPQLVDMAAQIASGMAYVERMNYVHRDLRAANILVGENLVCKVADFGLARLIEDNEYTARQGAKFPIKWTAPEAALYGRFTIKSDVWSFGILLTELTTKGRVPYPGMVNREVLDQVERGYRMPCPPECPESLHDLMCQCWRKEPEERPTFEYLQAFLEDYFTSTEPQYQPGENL
T1 sequence (Q06187 whole entry): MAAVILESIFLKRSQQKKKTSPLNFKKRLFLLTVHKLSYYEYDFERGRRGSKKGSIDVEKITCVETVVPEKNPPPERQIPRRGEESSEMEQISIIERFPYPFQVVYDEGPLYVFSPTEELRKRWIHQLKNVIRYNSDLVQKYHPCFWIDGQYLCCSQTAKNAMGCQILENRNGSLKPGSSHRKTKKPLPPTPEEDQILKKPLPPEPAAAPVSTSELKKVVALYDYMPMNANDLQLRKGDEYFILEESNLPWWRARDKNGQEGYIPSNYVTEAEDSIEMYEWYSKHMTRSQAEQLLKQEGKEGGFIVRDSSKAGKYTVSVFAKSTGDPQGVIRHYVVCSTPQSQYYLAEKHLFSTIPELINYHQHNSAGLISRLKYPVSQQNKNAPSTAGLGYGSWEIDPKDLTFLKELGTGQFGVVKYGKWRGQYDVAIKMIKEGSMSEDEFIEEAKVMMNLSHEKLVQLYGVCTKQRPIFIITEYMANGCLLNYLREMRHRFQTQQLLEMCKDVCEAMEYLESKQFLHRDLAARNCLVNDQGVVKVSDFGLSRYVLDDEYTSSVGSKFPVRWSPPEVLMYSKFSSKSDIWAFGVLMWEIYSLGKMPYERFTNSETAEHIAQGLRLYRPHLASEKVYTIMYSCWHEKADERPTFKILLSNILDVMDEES

Row | IC50 (SRC) [nM] | IC50 (BTK-WT) [nM] | IC50 (ITK) [nM] | Compound
1 | 1000 to 10000 | 10 to 100 | 1000 to 10000 | CN1CCN(c2ccc(Nc3cc(N4CCC[C@@H](n5ccc6cc(C7CC7)ccc6c5=O)C4)cnc3C(N)=O)cc2)CC1 [Example D-178, 5-[(3R)-3-(6-cyclopropyl-1-oxo-1,2-dihydroisoquinolin-2-yl)piperidin-1-yl]-3-{[4-(4-methylpiperazin-1-yl)phenyl]amino}pyridine-2-carboxamide]
2 | > 10000 | 100 to 1000 | 1000 to 10000 | CN1CCN(c2ccc(Nc3nc(N4CCC[C@@H](n5ccc6cc(C7CC7)ccc6c5=O)C4)cnc3C(N)=O)nc2)CC1 [Example D-179, 5-[(3R)-3-(6-cyclopropyl-1-oxo-1,2-dihydroisoquinolin-2-yl)piperidin-1-yl]-3-{[5-(4-methylpiperazin-1-yl)pyridin-2-yl]amino}pyrazine-2-carboxamide]
3 | > 10000 | 100 to 1000 | > 10000 | C[C@@H]1[C@H](NC(=O)N(C)C)CCCN1c1cnc(C(N)=O)c(Nc2ccc(N3CCN(C)CC3)cn2)n1 [Example D-180, 5-[(2R,3R)-3-[(dimethylcarbamoyl)amino]-2-methylpiperidin-1-yl]-3-{[5-(4-methylpiperazin-1-yl)pyridin-2-yl]amino}pyrazine-2-carboxamide]
4 | 10 to 100 | ≤ 10 | 1000 to 10000 | Cc1cc(Nc2nc(N3C[C@H](NC(=O)c4ccc(C5CC5)cc4F)CC[C@@H]3C)cnc2C(N)=O)sn1 [Example D-181, 5-[(2S,5R)-5-(4-cyclopropyl-2-fluorobenzamido)-2-methylpiperidin-1-yl]-3-[(3-methyl-1,2-thiazol-5-yl)amino]pyrazine-2-carboxamide]
5 | 10 to 100 | ≤ 10 | 100 to 1000 | C[C@@H]1[C@H](NC(=O)N(C)C)CCCN1c1cnc(C(N)=O)c(Nc2ccc(N3CCN(C4CCCC4)CC3)cc2)n1 [Example D-182, 3-{[4-(4-cyclopentylpiperazin-1-yl)phenyl]amino}-5-[(2R,3R)-3-[(dimethylcarbamoyl)amino]-2-methylpiperidin-1-yl]pyrazine-2-carboxamide]
6 | 1000 to 10000 | ≤ 10 | > 10000 | Cn1cc(Nc2nc(N3CCC[C@@H](n4ccc5cc(C6CC6)ccc5c4=O)C3)cnc2C(N)=O)cn1 [Example D-184, 5-[(3R)-3-(6-cyclopropyl-1-oxo-1,2-dihydroisoquinolin-2-yl)piperidin-1-yl]-3-[(1-methyl-1H-pyrazol-4-yl)amino]pyrazine-2-carboxamide]
7 | 10 to 100 | ≤ 10 | 100 to 1000 | C[C@@H]1[C@H](NC(=O)c2ccc(C3CC3)cc2)CCCN1c1cnc(C(N)=O)c(Nc2cnn(C3CCN(C)CC3)c2)n1 [Example D-185, 5-[(2R,3R)-3-(4-cyclopropylbenzamido)-2-methylpiperidin-1-yl]-3-{[1-(1-methylpiperidin-4-yl)-1H-pyrazol-4-yl]amino}pyrazine-2-carboxamide]
8 | 100 to 1000 | 10 to 100 | > 10000 | Cc1cc(Nc2nc(N3CCC[C@@H](c4ncc(-c5ccc(C6CC6)cc5)[nH]4)[C@H]3C)cnc2C(N)=O)sn1 [Example D-186, 5-[(2R,3R)-3-[5-(4-cyclopropylphenyl)-1H-imidazol-2-yl]-2-methylpiperidin-1-yl]-3-[(3-methyl-1,2-thiazol-5-yl)amino]pyrazine-2-carboxamide]
9 | 100 to 1000 | 10 to 100 | 1000 to 10000 | C[C@@H]1[C@H](NC(=O)c2ccc(C3CC3)cc2)CCCN1c1cnc(C(N)=O)c(Nc2cnn(CCN(C)C)c2)n1 [Example D-187, 5-[(2R,3R)-3-(4-cyclopropylbenzamido)-2-methylpiperidin-1-yl]-3-({1-[2-(dimethylamino)ethyl]-1H-pyrazol-4-yl}amino)pyrazine-2-carboxamide]
10 | 10 to 100 | ≤ 10 | 100 to 1000 | C[C@@H]1[C@H](NC(=O)c2ccc(C3CC3)cn2)CCCN1c1cnc(C(N)=O)c(Nc2ccc(N3CCN(C)CC3)cc2)n1 [Example D-188, 5-[(2R,3R)-3-(5-cyclopropylpyridine-2-amido)-2-methylpiperidin-1-yl]-3-{[4-(4-methylpiperazin-1-yl)phenyl]amino}pyrazine-2-carboxamide]
11 | > 10000 | 100 to 1000 | > 10000 | Cn1cc(Nc2nc(N3C[C@@H](NC(=O)c4ccc(C5CC5)cc4)CC(F)(F)C3)cnc2C(N)=O)cn1 [Example D-189, 5-[(5S)-5-(4-cyclopropylbenzamido)-3,3-difluoropiperidin-1-yl]-3-[(1-methyl-1H-pyrazol-4-yl)amino]pyrazine-2-carboxamide]
12 | 100 to 1000 | 10 to 100 | 1000 to 10000 | Cn1cc(Nc2nc(N3CCC[C@@H](NC(=O)c4ccc(C5CC5)cc4)C3)cnc2C(N)=O)cn1 [Example D-191, 5-[(3R)-3-(4-cyclopropylbenzamido)piperidin-1-yl]-3-[(1-methyl-1H-pyrazol-4-yl)amino]pyrazine-2-carboxamide]
13 | 1000 to 10000 | 1000 to 10000 | 1000 to 10000 | Cn1cc(Nc2nc(N3CCC(F)(F)[C@H](NC(=O)c4ccc(C5CC5)cc4)C3)cnc2C(N)=O)cn1 [Example D-192, 5-[(3R)-3-(4-cyclopropylbenzamido)-4,4-difluoropiperidin-1-yl]-3-[(1-methyl-1H-pyrazol-4-yl)amino]pyrazine-2-carboxamide]
14 | 1000 to 10000 | 10 to 100 | > 10000 | Cn1cc(Nc2nc(N3CCC(F)(F)[C@@H](NC(=O)c4ccc(C5CC5)cc4)C3)cnc2C(N)=O)cn1 [Example D-193, 5-[(3S)-3-(4-cyclopropylbenzamido)-4,4-difluoropiperidin-1-yl]-3-[(1-methylpyrazol-4-yl)amino]pyrazine-2-carboxamide]
15 | 100 to 1000 | ≤ 10 | 100 to 1000 | C[C@@H]1[C@H](NC(=O)c2ccc(C(C)(C)O)cc2)CCCN1c1cnc(C(N)=O)c(Nc2cnn(C)c2)n1 [Example D-194, 5-[(2R,3R)-3-[4-(2-hydroxypropan-2-yl)benzamido]-2-methylpiperidin-1-yl]-3-[(1-methyl-1H-pyrazol-4-yl)amino]pyrazine-2-carboxamide]
16 | 100 to 1000 | ≤ 10 | 100 to 1000 | Cn1cc(Nc2nc(N3CCC[C@@H](NC(=O)c4ccc(C5CC5)cc4)C3)nnc2C(N)=O)cn1 [Example D-195, 3-[(3R)-3-(4-cyclopropylbenzamido)piperidin-1-yl]-5-[(1-methyl-1H-pyrazol-4-yl)amino]-1,2,4-triazine-6-carboxamide]

Row | Compound | IC50 (SRC) [nM] | IC50 (BTK-WT) [nM] | IC50 (ITK) [nM]
17 | CC1(c2ccc(Nc3nc(N4CCC[C@@H](n5ccc6cc(C7CC7)ccc6c5=O)C4)cnc3C(N)=O)cc2)CCN(C2CCCC2)CC1 [Example D-177, 3-{[4-(1-cyclopentyl-4-methylpiperidin-4-yl)phenyl]amino}-5-[(3R)-3-(6-cyclopropyl-1-oxo-1,2-dihydroisoquinolin-2-yl)piperidin-1-yl]pyrazine-2-carboxamide] | 10 to 100 | ≤ 10 | 10 to 100
18 | C[C@@H]1[C@H](NC(=O)c2ccc(N(C)C)cc2)CCCN1c1cnc(C(N)=O)c(Nc2ccc(C3(C)CCN(C4CCCC4)CC3)cc2)n1 [Example D-183, 3-{[4-(1-cyclopentyl-4-methylpiperidin-4-yl)phenyl]amino}-5-[(2R,3R)-3-[4-(dimethylamino)benzamido]-2-methylpiperidin-1-yl]pyrazine-2-carboxamide] | ≤ 10 | ≤ 10 | 10 to 100

Source: patent US20210070748A1, “INHIBITORS OF BRUTONS TYROSINE KINASE” (Pharmacyclics LLC, priority 2015, published 2021)
